Laboratory results: patent publication US4657924A, “Nafazatrom as a lipoxygenase inhibitor” (priority 1983, dated 1987)

Legend:
[1] = Antiasthmatic, inflammation-inhibiting and gastro-protective action; details: in words
12-lipoxygenase = 12-lipoxygenase inhibition; type: biochemical; details: these concentrations (>10 μg/ml)
15-lipoxygenase = 15-lipoxygenase inhibition; type: biochemical; details: concentrations of >10 μg/ml
[2] = tested on: prostacyclin (PGI2) from the vascular endothelium; details: Vermylen et al., Chamone et al., McIntyre and Salzman; cited from earlier work
[3] = tested on: synthesis of various prostaglandins in RSVM and BAM; experiment: Prostaglandin synthesis in microsomes of sheep seminal vesicles (RSVM) and cattle aortas (BAM); type: biochemical
Procedure: The specific PGI2 -stimulating action of nafazatrom was shown in vitro in a mixture of microsomes from the seminal vesicles of sheep (RSVM) and the aortas of cattle (BAM) (compare F. Cottee et al., Protaglandins, 14, 413, 1977). ^3 H-arachidonic acid was incubated with a mixture of RSVM and BAM in the presence of 3.10^-5 g/ml of nafazatrom at 25° C. for 10 minutes. The reaction was stopped by acidification to pH 3.5. The fatty acid metabolites were extracted with ethyl acetate. The ethyl acetate was evaporated off under N2, the residue was taken up in CH3 OH/CHCl3 (1:1) and the mixture was discharged on thin layer chromatography plastic sheets. Separation was effected with a mobile phase mixture of ethyl acetate/glacial acetic acid/isooctane/H2 O (110:20:50:10; organic phase) (P. Needleman et al., The Journal of Clinical Investigation 1978, 61, 839-849). The distribution of the radioactivity was measured by means of a radio scanner.

cyclooxygenase = experiment: Cyclooxygenase inhibition; type: biochemical; details: on administration of nafazatrom
[4] = tested on: hydroperoxidase portion of cyclooxygenase; details: T. E. Eling et al., 1982; cited from earlier work
5-lipoxygenase = 5-lipoxygenase inhibition; type: biochemical; details: selectively, versus 15- and 12-lipoxygenase
[5] = tested on: disorders in cardiac rhythm following coronary ligature; experiment: Coronary artery ligation in rats: disorders in cardiac rhythm; type: in vivo, rat (Wistar); details: for Duration of VF (seconds), early / Duration of VT (seconds), early / Extrasystoles %, early: 0-10 minutes; for Duration of VF (seconds), late / Duration of VT (seconds), late / Extrasystoles %, late: 2-4 hours
Description: Ligation of the left coronary artery of the rat heart and the disorders in cardiac rhythm which thereby occur form a relatively simple model for investigating substances having antiarrhythmic actions and effects on the developing myocardial ischaemia (Clark et al., J. Pharmacol. Meth. 3, 357, 1980). The effects of nafazatrom on antiarrhythmic and antiischaemic properties in conscious rats was investigated in this model. Particular importance was placed on the severity and quantity of disorders in cardiac rhythm which occurred.
Male Wistar rats (250-350 g) were superficially anaesthetized with ether and investigated for rhythm disorders. Animals with rhythm abnormalities before the start of the experiment were excluded. In acute surgery, the animals were again anaesthetized with ether. In the lateral dorsal position, the thorax was opened somewhat to the left alongside the central line and the heart was exteriorized. Close below the left heart auricle, a silk ligature (3-0) was looped through the muscle of the left heart under the anterior coronary artery. Animals which developed rhythm disorders during this procedure were excluded. The left coronary artery was ligatured by the method described by Selye et al. (Angiology 11, 398, 1960), the heart was returned to the thorax and the wound was rapidly closed with thread. Since the thorax had not been opened for longer than about 45 seconds, artificial respiration of the animals was unnecessary. The operation mortality was between 25 and 40% within the first hours, and in particular myocardial haemorrhages, rhythm disorders with ventricular fibrillation, and massive cardiac infractions occurred. In a sham-operatedgroup, the same experimental conditions were investigated, with the exception that the coronary artery remained open. Shortly after the ligature had been made, early rhythm disorders were observed, which were accompanied in some cases (untreated) with ventricular fibrillations. In most cases, this ventricular fibrillation spontaneously turned into uniform sinus rhythm of heart contraction. The disorders in cardiac rhythm were evaluated by the plan described by Clark (see above). Ventricular tachycardia was defined as the result of more than 10 successive rhythm disorders with extrasystoles. Electrocardiographic changes included a rise in the ST segment, a drop in the Q waves and a rise in the QT interval. The total number of ectopic activity in each individual animal was determined by counting the ventricular extrasystoles, including tachycardia and fibrillations.
Three groups were investigated: group I received the diluent (1% strength aqueous Tylose suspension, that is to say methylhydroxyethyl-cellulose) twice daily perorally (0.5 ml/kg) for 10 days and by the same administration and in the same amount, after coronary ligature, for a further 20 days; group II was pretreated with the diluent for 10 days (0.5 ml/kg) and was treated with 30 or 100 mg/kg of nafazatrom (in each case suspended in 0.5 ml/kg of 1% strength Tylose suspension) twice daily perorally for 20 days, after coronary ligature (the first nafazatrom administration was effected immediately after the coronary ligature); group III received the above oral doses of nafazatrom in the course of 10 days before the ligature, and the diluent Tylose suspension for 10 days after the coronary occlusion had been effected. The sham-operated animals remained untreated. The peripheral ECG in the extremities was determined in lead II, and in particular, as a control before the start of treatment, shortly before and during coronary ligature, 10 minutes after coronary ligature had been effected, and--after renewed ether anaesthesia-- between the 2nd and 4th hour after coronary occlusion. Each time, the animals were superficially anaesthetized again with ether when the ECG was recorded. At the end of the treatment period, a last ECG was recorded shortly before the animals were sacrificed. […]

[6] = 3.10^-5 g/ml, 25° C., 10 minutes
[7] = group II, after-treatment 30 mg/kg, 2 × daily, 15 animals
[8] = group II, after-treatment 30 mg/kg, 2 × daily, 9 animals
[9] = group II, after-treatment 100 mg/kg, 2 × daily, 18 animals
[10] = group III, pre-treatment 30 mg/kg, 10 days, 12 animals
[11] = group III, pre-treatment 30 mg/kg, 10 days, 10 animals
[12] = group III, pre-treatment 100 mg/kg, 10 days, 16 animals
[13] = group III, pre-treatment 100 mg/kg, 10 days, 11 animals

SMILES: CC1=NN(CCOc2ccc3ccccc3c2)C(=O)C1 [nafazatrom, 3-methyl-1-[2-(2-naphthyloxy)-ethyl]-2-pyrazolin-5-one]
- antiasthmatic, inflammation-inhibiting and gastro-protective action [1]: marked antiasthmatic, inflammation-inhibiting and gastro-protective action
- inhibition of 12-lipoxygenase (12-lipoxygenase): not inhibited
- inhibition of 15-lipoxygenase (15-lipoxygenase): not inhibited or is even stimulated
- stimulation of endogenous prostacyclin (PGI2) [2]: stimulator of endogenous prostacyclin (PGI2)
- Increase in concentration (in %) in comparison with the control, 6-Keto-PGF1 α [3, 6]: 300-400%
- Increase in concentration (in %) in comparison with the control, PGD2 [3, 6]: 0%
- Increase in concentration (in %) in comparison with the control, PGE2 [3, 6]: 0%
- Increase in concentration (in %) in comparison with the control, PGF2 α [3, 6]: 0%
- synthesis of prostacyclin (PGI2) ([3]; in words): specifically stimulates
- synthesis of the prostaglandins having a vasoconstricting action and of TXA2 ([3]; in words, see Example 2): not influenced
- inhibition of cyclooxygenase (cyclooxygenase): No such inhibition of cyclooxygenase
- action on hydroperoxidase portion of cyclooxygenase; conversion of arachidonic acid into PGH2 [4]: acts as a reducing cofactor of the hydroperoxidase portion of cyclooxygenase and accelerates the conversion of arachidonic acid into PGH2
- inhibition of 5-lipoxygenase (5-lipoxygenase): selectively inhibits
- irregularities in comparison with the control animals ([5]; early (0-10 minutes) and late phase (2-4 hours)): significantly fewer irregularities
- Duration of VF (seconds), early [5, 7]: 65 s
- Duration of VT (seconds), early [5, 7]: 72 s
- Extrasystoles %, early [5, 7]: 94%
- Duration of VF (seconds), late [5, 8]: 0 s
- Duration of VT (seconds), late [5, 8]: 4 s
- Extrasystoles %, late [5, 8]: 6%
- Duration of VF (seconds), early [5, 9]: 68 s
- Duration of VT (seconds), early [5, 9]: 60 s
- Extrasystoles %, early [5, 9]: 90%
- Duration of VF (seconds), late [5, 9]: 0 s
- Duration of VT (seconds), late [5, 9]: 0 s
- Extrasystoles %, late [5, 9]: 0%
- Duration of VF (seconds), early [5, 10]: 5 s
- Duration of VT (seconds), early [5, 10]: 9 s
- Extrasystoles %, early [5, 10]: 34%
- Duration of VF (seconds), late [5, 11]: 11 s
- Duration of VT (seconds), late [5, 11]: 10 s
- Extrasystoles %, late [5, 11]: 25%
- Duration of VF (seconds), early [5, 12]: 0 s
- Duration of VT (seconds), early [5, 12]: 13 s
- Extrasystoles %, early [5, 12]: 25%
- Duration of VF (seconds), late [5, 13]: 6 s
- Duration of VT (seconds), late [5, 13]: 10 s
- Extrasystoles %, late [5, 13]: 4%
- prevention of rhythm disorders ([5]; pre-treatment of 100 mg/kg): prevent almost all the rhythm disorders
